In PubChem BioAssay (NCI):
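The concentration for 50% growth inhibition is given as GI50. TGI: concentration producing complete growth inhibition.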

Key:
Test in all cases: NCI anticancer screen, dose series, 384-well format
786-0 renal = system: 786-0 renal
A498 renal = system: A498 renal
A549 NSCLC = system: A549 NSCLC
ACHN renal = system: ACHN renal
BT-549 breast = system: BT-549 breast
CAKI-1 renal = system: CAKI-1 renal
CCRF-CEM leukemia = system: CCRF-CEM leukemia
COLO 205 colon = system: COLO 205 colon
DU-145 prostate = system: DU-145 prostate
EKVX NSCLC = system: EKVX NSCLC
HCC-2998 colon = system: HCC-2998 colon
HCT-116 colon = system: HCT-116 colon
HCT-15 colon = system: HCT-15 colon
HL-60(TB) leukemia = system: HL-60(TB) leukemia
HOP-62 NSCLC = system: HOP-62 NSCLC
HOP-92 NSCLC = system: HOP-92 NSCLC
HS 578T breast = system: HS 578T breast
HT29 colon = system: HT29 colon
IGROV1 ovarian = system: IGROV1 ovarian
K-562 leukemia = system: K-562 leukemia
KM12 colon = system: KM12 colon
LOX IMVI melanoma = system: LOX IMVI melanoma
M14 melanoma = system: M14 melanoma
MALME-3M melanoma = system: MALME-3M melanoma
MCF7 breast = system: MCF7 breast
MDA-MB-231 breast = system: MDA-MB-231 breast
MDA-MB-435 melanoma = system: MDA-MB-435 melanoma
MDA-MB-468 breast = system: MDA-MB-468 breast
MOLT-4 leukemia = system: MOLT-4 leukemia
NCI-H226 lung = system: NCI-H226 lung
NCI-H23 lung = system: NCI-H23 lung
NCI-H322M lung = system: NCI-H322M lung
NCI-H460 NSCLC = system: NCI-H460 NSCLC
NCI-H522 lung = system: NCI-H522 lung
NCI/ADR-RES ovarian = system: NCI/ADR-RES ovarian
OVCAR-3 ovarian = system: OVCAR-3 ovarian
OVCAR-4 ovarian = system: OVCAR-4 ovarian
OVCAR-8 ovarian = system: OVCAR-8 ovarian
PC-3 prostate = system: PC-3 prostate
RPMI-8226 leukemia = system: RPMI-8226 leukemia
RXF 393 renal = system: RXF 393 renal
SF-268 CNS = system: SF-268 CNS
SF-295 CNS = system: SF-295 CNS
SF-539 CNS = system: SF-539 CNS
SK-MEL-28 melanoma = system: SK-MEL-28 melanoma
SK-MEL-5 melanoma = system: SK-MEL-5 melanoma
SK-OV-3 ovarian = system: SK-OV-3 ovarian
SN12C renal = system: SN12C renal
SNB-19 CNS = system: SNB-19 CNS
SNB-75 CNS = system: SNB-75 CNS
SR leukemia = system: SR leukemia
SW-620 colon = system: SW-620 colon
T-47D breast = system: T-47D breast
TK-10 renal = system: TK-10 renal
U251 glioblastoma = system: U251 glioblastoma
UACC-257 melanoma = system: UACC-257 melanoma
UACC-62 melanoma = system: UACC-62 melanoma
UO-31 renal = system: UO-31 renal

Question: With CS(=O)(=O)N1CCc2c(-c3cnc(N)nc3)nc(N3CCOCC3)nc21 as the compound, how does the GI50 ([…]-0 renal) read?
Answer: 1710 nM

Question: And the TGI (786-0 renal)?
Answer: 17800 nM

Question: And the GI50 (A498 renal)?
Answer: 428 nM

Question: And the TGI (A498 renal)?
Answer: 2730 nM

Question: What about the GI50 (A549 NSCLC) of the same compound?
Answer: 806 nM

Question: What about the TGI (A549 NSCLC) of the same compound?
Answer: 16900 nM

Question: What about the GI50 (ACHN renal) of the same compound?
Answer: 719 nM

Question: What about the TGI (ACHN renal) of the same compound?
Answer: 15900 nM

Question: What about the GI50 (BT-549 breast) of the same compound?
Answer: 1050 nM

Question: What about the TGI (BT-549 breast) of the same compound?
Answer: 5670 nM

Question: What about the GI50 (CAKI-1 renal) of the same compound?
Answer: 335 nM

Question: What about the TGI (CAKI-1 renal) of the same compound?
Answer: 3510 nM

Question: What about the GI50 (CCRF-CEM leukemia) of the same compound?
Answer: 722 nM

Question: And the TGI (CCRF-CEM leukemia)?
Answer: 30400 nM

Question: What about the GI50 (COLO 205 colon) of the same compound?
Answer: 477 nM

Question: What about the TGI (COLO 205 colon) of the same compound?
Answer: > 100000 nM

Question: What about the GI50 (DU-145 prostate) of the same compound?
Answer: 661 nM

Question: What about the TGI (DU-145 prostate) of the same compound?
Answer: 8570 nM

Question: What about the GI50 (EKVX NSCLC) of the same compound?
Answer: 411 nM

Question: What about the TGI (EKVX NSCLC) of the same compound?
Answer: 3830 nM

Question: And the GI50 (HCC-2998 colon)?
Answer: 1420 nM

Question: What about the TGI (HCC-2998 colon) of the same compound?
Answer: > 100000 nM

Question: What about the GI50 (HCT-116 colon) of the same compound?
Answer: 1060 nM

Question: What about the TGI (HCT-116 colon) of the same compound?
Answer: > 100000 nM

Question: What about the GI50 (HCT-15 colon) of the same compound?
Answer: 445 nM

Question: And the TGI (HCT-15 colon)?
Answer: > 100000 nM

Question: What about the GI50 (HL-60(TB) leukemia) of the same compound?
Answer: 192 nM

Question: And the TGI (HL-60(TB) leukemia)?
Answer: > 100000 nM

Question: What about the GI50 (HOP-62 NSCLC) of the same compound?
Answer: 1340 nM

Question: And the TGI (HOP-62 NSCLC)?
Answer: > 100000 nM

Question: What about the GI50 (HOP-92 NSCLC) of the same compound?
Answer: 248 nM

Question: And the TGI (HOP-92 NSCLC)?
Answer: 2590 nM

Question: What about the GI50 (HS 578T breast) of the same compound?
Answer: 465 nM

Question: And the TGI (HS 578T breast)?
Answer: 3000 nM

Question: And the GI50 (HT29 colon)?
Answer: 334 nM

Question: What about the TGI (HT29 colon) of the same compound?
Answer: > 100000 nM

Question: What about the GI50 (IGROV1 ovarian) of the same compound?
Answer: 123 nM

Question: What about the TGI (IGROV1 ovarian) of the same compound?
Answer: 568 nM

Question: And the GI50 (K-562 leukemia)?
Answer: 3650 nM

Question: And the TGI (K-562 leukemia)?
Answer: > 100000 nM

Question: What about the GI50 (KM12 colon) of the same compound?
Answer: 2230 nM

Question: What about the TGI (KM12 colon) of the same compound?
Answer: > 100000 nM

Question: And the GI50 (LOX IMVI melanoma)?
Answer: 1010 nM

Question: And the TGI (LOX IMVI melanoma)?
Answer: 28400 nM

Question: And the GI50 (M14 melanoma)?
Answer: 932 nM

Question: What about the TGI (M14 melanoma) of the same compound?
Answer: > 100000 nM

Question: And the GI50 (MALME-3M melanoma)?
Answer: 281 nM

Question: And the TGI (MALME-3M melanoma)?
Answer: 2180 nM

Question: And the GI50 (MCF7 breast)?
Answer: 47.3 nM

Question: And the TGI (MCF7 breast)?
Answer: > 100000 nM

Question: And the GI50 (MDA-MB-231 breast)?
Answer: 900 nM

Question: And the TGI (MDA-MB-231 breast)?
Answer: > 100000 nM

Question: And the GI50 (MDA-MB-435 melanoma)?
Answer: 1490 nM

Question: What about the TGI (MDA-MB-435 melanoma) of the same compound?
Answer: 94500 nM

Question: And the GI50 (MDA-MB-468 breast)?
Answer: 391 nM

Question: What about the TGI (MDA-MB-468 breast) of the same compound?
Answer: 2320 nM

Question: And the GI50 (MOLT-4 leukemia)?
Answer: 252 nM

Question: And the TGI (MOLT-4 leukemia)?
Answer: 1550 nM

Question: And the GI50 (NCI-H226 lung)?
Answer: 380 nM

Question: And the TGI (NCI-H226 lung)?
Answer: 3940 nM

Question: What about the GI50 (NCI-H23 lung) of the same compound?
Answer: 826 nM

Question: And the TGI (NCI-H23 lung)?
Answer: > 100000 nM

Question: What about the GI50 (NCI-H322M lung) of the same compound?
Answer: 426 nM

Question: What about the TGI (NCI-H322M lung) of the same compound?
Answer: 9380 nM

Question: And the GI50 (NCI-H460 NSCLC)?
Answer: 256 nM

Question: What about the TGI (NCI-H460 NSCLC) of the same compound?
Answer: 31300 nM

Question: What about the GI50 (NCI-H522 lung) of the same compound?
Answer: 710 nM

Question: And the TGI (NCI-H522 lung)?
Answer: > 100000 nM

Question: What about the GI50 (NCI/ADR-RES ovarian) of the same compound?
Answer: 2600 nM

Question: What about the TGI (NCI/ADR-RES ovarian) of the same compound?
Answer: > 100000 nM

Question: And the GI50 (OVCAR-3 ovarian)?
Answer: 752 nM

Question: And the TGI (OVCAR-3 ovarian)?
Answer: 6660 nM

Question: And the GI50 (OVCAR-4 ovarian)?
Answer: 1650 nM

Question: What about the TGI (OVCAR-4 ovarian) of the same compound?
Answer: 7870 nM

Question: What about the GI50 (OVCAR-8 ovarian) of the same compound?
Answer: 1010 nM

Question: What about the TGI (OVCAR-8 ovarian) of the same compound?
Answer: > 100000 nM

Question: What about the GI50 (PC-3 prostate) of the same compound?
Answer: 340 nM

Question: And the TGI (PC-3 prostate)?
Answer: 4450 nM

Question: What about the GI50 (RPMI-8226 leukemia) of the same compound?
Answer: 461 nM

Question: And the TGI (RPMI-8226 leukemia)?
Answer: 2470 nM

Question: And the GI50 (RXF 393 renal)?
Answer: 1160 nM

Question: What about the TGI (RXF 393 renal) of the same compound?
Answer: 4970 nM

Question: What about the GI50 (SF-268 CNS) of the same compound?
Answer: 1700 nM

Question: And the TGI (SF-268 CNS)?
Answer: > 100000 nM

Question: What about the GI50 (SF-295 CNS) of the same compound?
Answer: 537 nM

Question: And the TGI (SF-295 CNS)?
Answer: 2990 nM

Question: And the GI50 (SF-539 CNS)?
Answer: 1120 nM

Question: What about the TGI (SF-539 CNS) of the same compound?
Answer: 14100 nM

Question: And the GI50 (SK-MEL-28 melanoma)?
Answer: 673 nM

Question: And the TGI (SK-MEL-28 melanoma)?
Answer: 8520 nM

Question: What about the GI50 (SK-MEL-5 melanoma) of the same compound?
Answer: 1230 nM

Question: And the TGI (SK-MEL-5 melanoma)?
Answer: 7900 nM

Question: And the GI50 (SK-OV-3 ovarian)?
Answer: 170 nM

Question: And the TGI (SK-OV-3 ovarian)?
Answer: 1360 nM

Question: And the GI50 (SN12C renal)?
Answer: 433 nM

Question: What about the TGI (SN12C renal) of the same compound?
Answer: 5540 nM

Question: What about the GI50 (SNB-19 CNS) of the same compound?
Answer: 5410 nM

Question: And the TGI (SNB-19 CNS)?
Answer: > 100000 nM

Question: What about the GI50 (SNB-75 CNS) of the same compound?
Answer: 391 nM

Question: And the TGI (SNB-75 CNS)?
Answer: 3600 nM

Question: What about the GI50 (SR leukemia) of the same compound?
Answer: 116 nM

Question: What about the TGI (SR leukemia) of the same compound?
Answer: 551 nM

Question: And the GI50 (SW-620 colon)?
Answer: 2640 nM

Question: And the TGI (SW-620 colon)?
Answer: > 100000 nM

Question: What about the GI50 (T-47D breast) of the same compound?
Answer: 31.7 nM

Question: And the TGI (T-47D breast)?
Answer: 396 nM

Question: What about the GI50 (TK-10 renal) of the same compound?
Answer: 421 nM

Question: And the TGI (TK-10 renal)?
Answer: 4970 nM

Question: And the GI50 (U251 glioblastoma)?
Answer: 2640 nM

Question: What about the TGI (U251 glioblastoma) of the same compound?
Answer: > 100000 nM

Question: And the GI50 (UACC-257 melanoma)?
Answer: 2120 nM

Question: And the TGI (UACC-257 melanoma)?
Answer: > 100000 nM

Question: And the GI50 (UACC-62 melanoma)?
Answer: 739 nM

Question: What about the TGI (UACC-62 melanoma) of the same compound?
Answer: 4090 nM

Question: What about the GI50 (UO-31 renal) of the same compound?
Answer: 489 nM

Question: And the TGI (UO-31 renal)?
Answer: 7600 nM
